From the supplement of paper PMC10307832

Columns and labels:
Assay in all cases: relative viability (nuclei count vs DMSO), 5 days (fraction); higher = more cells survive
[1] = compound: Cc1cnc(CNC(=O)c2c(=O)c3ccc(N4CCCN(C)CC4)nc3n3c2sc2ccccc23)cn1 [CX-5461] + Cc1cc(Nc2cc(N3CCN(C)CC3)nc(Sc3ccc(NC(=O)C4CC4)cc3)n2)n[nH]1 [Tozasertib] (partner 0.1 µM)
In short: (§1)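 Five library-drug doses in √10 steps were combined with a fixed anchor-drug dose, or a single drug was given alone, by pin tool to lung cancer cell lines in 1536-well plates the day after seeding. Nuclei were stained and counted after 5 days. Relative viability is the nuclei count in treated wells over that in vehicle wells, taken as the median of duplicate plates.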

[2] = compound: Cc1cnc(CNC(=O)c2c(=O)c3ccc(N4CCCN(C)CC4)nc3n3c2sc2ccccc23)cn1 [CX-5461] + N=C(N)NC(=N)NCCc1ccccc1 [Phenformin] (partner 250 µM)
In short: as §1

[3] = compound: O=C(Nc1cc(C(F)(F)F)cc(C(F)(F)F)c1)c1cc(Cl)ccc1O [IMD-0354] + CC(C)C[C@H](NC(=O)[C@H](Cc1ccccc1)NC(=O)c1cnccn1)B(O)O [Bortezomib] (partner 0.002 µM)
In short: as §1

[4] = compound: O=C(Nc1cc(C(F)(F)F)cc(C(F)(F)F)c1)c1cc(Cl)ccc1O [IMD-0354] + CS(=O)(=O)CCNCc1ccc(-c2ccc3ncnc(Nc4ccc(OCc5cccc(F)c5)c(Cl)c4)c3c2)o1 [Lapatinib] (partner 2 µM)
In short: as §1

Cell Line	relative viability ([1]; first compound 0.01 µM)	relative viability ([1]; first compound 0.03162 µM)	relative viability ([1]; first compound 0.1 µM)	relative viability ([1]; first compound 0.3162 µM)	relative viability ([1]; first compound 1 µM)	relative viability ([2]; first compound 0.01 µM)	relative viability ([2]; first compound 0.03162 µM)	relative viability ([2]; first compound 0.1 µM)	relative viability ([2]; first compound 0.3162 µM)	relative viability ([2]; first compound 1 µM)	relative viability ([3]; first compound 0.04 µM)	relative viability ([3]; first compound 0.1265 µM)	relative viability ([3]; first compound 0.4 µM)	relative viability ([3]; first compound 1.265 µM)	relative viability ([3]; first compound 4 µM)	relative viability ([4]; first compound 0.04 µM)	relative viability ([4]; first compound 0.1265 µM)	relative viability ([4]; first compound 0.4 µM)	relative viability ([4]; first compound 1.265 µM)	relative viability ([4]; first compound 4 µM)
HCC-44	1.05	1.25	0.922	0.811	0.29	0.179	0.205	0.145	0.229	0.136	0.913	0.918	0.35	0.213	0.179	0.976	1.08	0.408	0.23	0.206
HCC-78	0.463	0.391	0.466	0.326	0.453	0.729	0.66	0.764	0.783	0.55	0.419	0.438	0.443	0.561	0.382	1.16	0.889	0.729	0.0878	0.234
HCC-366	0.0846	0.0825	0.0964	0.116	0.0753	0.657	0.657	0.627	0.604	0.253	1.2	0.885	0.281	0.099	0.0336	0.91	1.41	0.118	0.0814	0.0302
HCC-827	0.451	0.376	0.425	0.411	0.43	0.406	0.426	0.444	0.406	0.359	1.03	1.07	0.825	0.462	0.347	0.195	0.187	0.186	0.168	0.145
HOP-62	0.315	0.405	0.372	0.284	0.344	0.743	0.713	0.742	0.572	0.472	0.954	0.836	0.661	0.227	0.0871	0.974	1.13	0.603	0.662	0.0827
LC-2-ad	0.377	0.446	0.469	0.411	0.364	0.618	0.627	0.564	0.398	0.442	1.02	0.991	0.385	0.129	0.119	0.947	0.924	0.354	0.192	0.116
LCLC-97TM1	0.269	0.26	0.218	–	0.208	0.397	0.479	0.415	–	0.384	0.928	0.501	0.706	0.0804	0.242	–	0.792	0.419	0.27	0.144
LOU-NH91	0.75	0.729	0.648	–	0.632	0.801	0.7	0.697	–	0.594	0.5	0.498	0.492	0.303	0.319	0.85	0.804	0.337	0.226	0.222
LU99A	0.265	0.259	0.253	0.241	0.272	0.911	0.855	0.821	0.528	0.21	0.878	1.19	0.625	0.281	0.186	0.708	0.952	0.604	0.247	0.165
LXF-289	0.2	0.224	0.16	0.179	0.179	0.523	0.526	0.521	0.255	0.276	1.03	0.833	0.757	0.291	0.131	0.948	0.895	0.835	0.301	0.188
NCI-H23	0.311	0.429	0.334	0.362	0.568	0.769	0.875	0.834	0.803	0.406	1.09	0.906	0.542	0.208	0.219	0.996	1.14	0.475	0.183	0.237
NCI-H322M	0.441	0.508	0.49	0.503	0.443	0.821	0.945	0.818	0.473	0.521	1.28	1.35	1.12	1.43	0.264	0.651	0.584	0.57	0.802	0.342
NCI-H460	0.523	0.584	0.462	0.227	0.0722	0.545	0.483	–	0.483	0.0194	0.893	1.15	0.18	0.0575	0.0265	1.08	0.679	0.178	0.0562	0.0153
NCI-H520	0.442	0.419	0.438	–	0.425	0.577	0.503	0.717	0.303	0.36	0.681	0.579	0.389	0.186	0.208	0.932	0.792	0.46	0.197	0.197
NCI-H596	0.866	1.04	0.984	0.863	0.796	0.754	0.869	0.879	0.723	0.637	0.931	1.15	0.846	1.08	0.629	0.989	1.22	0.823	1.07	0.474
NCI-H647	0.386	0.335	0.307	0.262	0.186	0.518	0.575	0.401	0.364	0.24	1.15	1.08	0.439	0.169	0.128	1.63	0.859	0.495	0.193	0.0984

Cell Line	relative viability ([1]; first compound 0.01 µM)	relative viability ([1]; first compound 0.03162 µM)	relative viability ([1]; first compound 0.1 µM)	relative viability ([1]; first compound 0.3162 µM)	relative viability ([1]; first compound 1 µM)	relative viability ([2]; first compound 0.01 µM)	relative viability ([2]; first compound 0.03162 µM)	relative viability ([2]; first compound 0.1 µM)	relative viability ([2]; first compound 0.3162 µM)	relative viability ([2]; first compound 1 µM)	relative viability ([3]; first compound 0.04 µM)	relative viability ([3]; first compound 0.1265 µM)	relative viability ([3]; first compound 0.4 µM)	relative viability ([3]; first compound 1.265 µM)	relative viability ([3]; first compound 4 µM)	relative viability ([4]; first compound 0.04 µM)	relative viability ([4]; first compound 0.1265 µM)	relative viability ([4]; first compound 0.4 µM)	relative viability ([4]; first compound 1.265 µM)	relative viability ([4]; first compound 4 µM)
NCI-H650	0.735	0.815	0.715	0.324	0.54	0.486	0.441	0.429	0.487	0.386	0.413	0.748	0.606	0.49	0.355	1.11	0.864	0.614	0.451	0.22
NCI-H661	0.35	0.347	0.348	0.351	0.338	0.285	0.286	0.316	0.259	0.23	0.968	0.718	0.719	0.925	0.276	0.466	0.458	0.477	0.538	0.273
NCI-H727	0.529	0.666	0.57	0.633	0.593	0.602	0.601	0.974	0.464	0.617	0.841	0.923	0.532	0.38	0.359	0.801	0.84	0.55	0.439	0.325
NCI-H838	0.249	0.281	0.271	–	0.273	0.748	0.652	0.629	–	0.431	0.858	0.744	0.425	0.333	0.254	1.14	0.855	0.399	0.305	0.261
NCI-H1355	0.579	0.594	0.53	0.323	0.548	0.501	0.458	0.454	0.299	0.244	1.42	1.24	0.833	0.224	0.256	1.27	1.16	0.829	0.213	0.21
NCI-H1437	0.404	0.459	–	0.367	0.366	0.353	0.315	–	0.288	0.273	0.486	0.383	0.332	0.0977	0.196	0.86	0.69	0.317	0.122	0.194
NCI-H1650	0.398	0.389	0.261	0.357	0.239	0.409	0.275	0.191	0.33	0.148	0.205	0.196	0.189	0.166	0.197	0.864	0.757	0.481	0.211	0.184
NCI-H1651	0.7	0.465	–	0.505	0.106	0.322	0.26	–	0.251	0.132	0.828	0.968	0.404	0.516	0.153	0.904	0.803	0.402	0.136	0.131
NCI-H1666	0.629	0.609	0.488	0.534	0.406	0.542	0.551	0.505	0.548	0.507	0.667	0.804	0.641	0.257	0.169	0.631	0.617	0.452	0.176	0.167
NCI-H1734	0.261	0.293	0.266	0.209	0.238	0.411	0.376	0.374	0.306	0.218	1.22	1.17	0.385	0.211	0.259	1.23	1.07	0.493	0.232	0.218
NCI-H1755	0.49	0.568	0.565	0.529	0.467	0.603	0.637	0.615	0.56	0.493	1.16	1.07	0.454	0.358	0.177	1.31	1.1	0.598	0.303	0.197
NCI-H1915	0.426	0.471	0.417	0.312	0.426	0.375	0.364	0.376	0.32	0.31	0.833	1	0.396	0.738	0.183	0.869	0.941	0.605	0.761	0.192
NCI-H1975	0.744	0.815	0.577	0.744	0.211	0.44	0.401	0.377	0.415	0.2	0.371	0.442	0.345	0.201	0.213	1.13	0.875	0.575	0.194	0.185
NCI-H1993	0.614	0.585	0.566	0.599	0.556	0.478	0.476	0.457	0.452	0.416	1.03	1.28	0.578	0.506	0.517	0.79	0.788	0.754	0.497	0.562
NCI-H2009	0.714	0.776	0.53	0.713	0.548	0.501	0.441	0.24	0.472	0.282	0.973	0.878	0.771	0.105	0.0845	0.82	0.832	0.647	0.134	0.155
NCI-H2023	0.306	0.325	0.237	0.283	0.0913	0.374	0.335	0.194	0.294	0.0701	1.02	0.97	0.843	0.114	0.081	0.717	0.841	0.662	0.0897	0.084
